Measured values published in ChEMBL document CHEMBL1201862, “PubChem BioAssay data set” (2004).
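Dose response: 5 concentrations. Exposure: 48 h. Format: 96-well plates. Endpoint: linear interpolation; highest concentration if not reached. GI50: concentration for 50% inhibition of growth.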 Activity calls are given as the source filed them. Rule as the data show it: active = GI50 up to about 1.1 µM and inactive = higher.

How the values were obtained:
Experiment in all cases: growth of human tumour cells (NCI), 48 h
[1] = tested on: NCI-H522
[2] = tested on: LOX IMVI
[3] = tested on: U-251
[4] = tested on: UO-31
[5] = tested on: OVCAR-4
[6] = tested on: SF-295
[7] = tested on: M14
[8] = tested on: SK-OV-3
[9] = tested on: UACC-62
[10] = tested on: SNB-19
[11] = tested on: K562
[12] = tested on: EKVX
[13] = tested on: CAKI-1
[14] = tested on: RXF 393
[15] = tested on: HOP-62
[16] = tested on: OVCAR-5

Measured: GI50

c1ccc(-c2csc3ncn4cnnc4c23)cc1
inactive: [1] 51.1 µM | [2] 55.8 µM | [3] > 100 µM | [4] 48.3 µM | [5] 75.5 µM | [6] > 100 µM | [7] > 100 µM | [8] > 100 µM | [9] 53.3 µM | [10] > 100 µM | [11] > 100 µM | [12] > 100 µM

COc1nc2c(nc(N)n2C2OC(CO)C(O)C(O)C2O)c(=O)n1C (configuration not stated)
inactive: [1] > 100 µM | [2] > 100 µM | [3] > 100 µM | [13] > 100 µM | [4] > 100 µM | [5] > 100 µM | [6] > 100 µM | [14] > 100 µM | [7] > 100 µM | [15] > 100 µM | [8] > 100 µM | [9] > 100 µM | [10] > 100 µM | [11] > 100 µM | [12] > 100 µM

Oc1c(-c2ccccc2)nc2ccccn12
inactive: [1] > 100 µM | [3] > 100 µM | [13] > 100 µM | [4] > 100 µM | [5] > 100 µM | [6] > 100 µM | [14] > 100 µM | [7] > 100 µM | [15] > 100 µM | [8] > 100 µM | [9] > 100 µM | [16] > 100 µM | [10] > 100 µM | [11] > 100 µM | [12] > 100 µM

O=C1O[C@@H](c2ccc3c(c2)OCO3)C2C(=O)O[C@@H](c3ccc4c(c3)OCO4)C12 (some centres not stated)
inactive: [1] > 100 µM | [2] > 100 µM | [3] > 100 µM | [4] > 100 µM | [5] > 100 µM | [6] > 100 µM | [14] > 100 µM | [7] > 100 µM | [15] > 100 µM | [8] > 100 µM | [9] > 100 µM | [10] > 100 µM | [11] > 100 µM | [12] > 100 µM

Cc1cccc(NC(=O)CSc2nnc(-c3ccc(/N=C\c4ccc(Cl)cc4)cc3)o2)c1
inactive: [1] 38.2 µM | [2] 72.9 µM | [3] > 100 µM | [4] > 100 µM | [5] 69.2 µM | [6] > 100 µM | [14] 60.4 µM | [7] > 100 µM | [15] > 100 µM | [8] > 100 µM | [9] > 100 µM | [10] > 100 µM | [11] > 100 µM | [12] > 100 µM

CCCCCCCCCCCCOC(=S)NCCCC
inactive: [1] 14.5 µM | [2] 17 µM | [3] 20.2 µM | [4] 3.37 µM | [5] 25.8 µM | [6] 36.9 µM | [14] 23.8 µM | [7] 27.8 µM | [15] 35.6 µM | [8] 18.7 µM | [9] 16.7 µM | [16] 19.8 µM | [10] 37.4 µM | [11] 19.3 µM | [12] 18.3 µM

CC(C)C(=O)N1Cc2cc(Cl)cc(Cl)c2OC(=O)c2ccccc21
inactive: [1] 21 µM | [2] 23.3 µM | [13] 22.8 µM | [4] 31.7 µM | [5] 28.8 µM | [6] 26.7 µM | [7] 25.8 µM | [15] 31.2 µM | [8] 25.9 µM | [9] 19.8 µM | [16] 27 µM | [10] 35.2 µM | [11] 51.1 µM | [12] 27.7 µM

CCOC(=O)NC(=O)c1cn(CCCCCCCCCCC(=O)NCCCN2CCN(CCCNC(=O)CCCCCCCCCCn3cc(C(=O)NC(=O)OCC)c(=O)[nH]c3=O)CC2)c(=O)[nH]c1=O
inactive: [1] > 10 µM | [2] > 100 µM | [3] > 100 µM | [13] > 10 µM | [4] > 100 µM | [6] > 100 µM | [7] > 10 µM | [15] > 10 µM | [8] > 100 µM | [9] > 100 µM | [16] > 100 µM | [10] > 100 µM | [11] > 100 µM

Nc1nc(-c2ccc(Cl)c([N+](=O)[O-])c2)cs1
inactive: [2] > 100 µM | [3] 40.6 µM | [13] 80 µM | [4] 78.9 µM | [5] > 100 µM | [6] 45.9 µM | [14] 29.3 µM | [7] > 100 µM | [15] > 100 µM | [8] > 100 µM | [9] > 100 µM | [16] > 100 µM | [10] 68.2 µM | [11] > 100 µM | [12] 94.8 µM

C/C(=N\NC(N)=S)c1ccc(/C(C)=N/NC(N)=S)cc1
inactive: [1] > 100 µM | [2] > 100 µM | [3] > 100 µM | [4] > 100 µM | [6] > 100 µM | [14] > 100 µM | [7] > 100 µM | [15] > 100 µM | [8] > 100 µM | [9] > 100 µM | [16] > 100 µM | [10] > 100 µM | [11] > 100 µM | [12] > 100 µM

COc1ccccc1NC(=O)C1=C(C)NC(C)=C(C(=O)Nc2ccccc2OC)C1c1cccc2c1OCO2
inactive: [2] > 100 µM | [3] > 100 µM | [13] > 100 µM | [4] 47.4 µM | [5] > 100 µM | [6] > 100 µM | [7] > 100 µM | [15] > 100 µM | [8] > 100 µM | [9] > 100 µM | [16] > 100 µM | [10] 91.8 µM | [11] 51.1 µM | [12] > 100 µM

COC(=O)C(CCC1(C)OCCO1)=[N+]=[N-]
inactive: [1] > 100 µM | [2] > 100 µM | [3] > 100 µM | [4] > 100 µM | [5] > 100 µM | [6] > 100 µM | [14] > 100 µM | [7] > 100 µM | [15] > 100 µM | [8] > 100 µM | [16] > 100 µM | [10] > 100 µM | [11] > 100 µM | [12] > 100 µM

CCOC(=O)N(c1ccccc1)N(CC)C(=O)/C(C)=N/Nc1ccc([N+](=O)[O-])cc1
inactive: [1] 15.3 µM | [3] 15 µM | [4] 14.8 µM | [5] 19.7 µM | [6] 16.6 µM | [14] 13 µM | [7] 17.9 µM | [15] 16.1 µM | [8] 19.8 µM | [9] 13.6 µM | [10] 16.2 µM | [11] 14.7 µM | [12] 18.6 µM

COc1ccc(C(O)c2cc(OC)c(OC)c(OC)c2)cc1 (configuration not stated)
inactive: [1] 11.6 µM | [2] 17.2 µM | [3] 34 µM | [13] 37.1 µM | [4] 30.6 µM | [5] 31.8 µM | [6] 6.44 µM | [14] 10.1 µM | [7] 13 µM | [15] 26.3 µM | [9] 8.91 µM | [16] > 100 µM | [10] 42.4 µM | [11] 3.78 µM | [12] 43.9 µM
